According to patent US11548925B2, “CACNA1H-derived tumor antigen polypeptide and use thereof” (Genoimmune Therapeutics Co., Ltd., priority 2016, dated 2023):

Legend:
CD8+ T cells [1] = assay: ELISPOTs detection of IFN-γ secretion by peptide-specific CD8+ T cells; type: cell-based, human; conditions: for Conclusion (immunogenicity): ELISPOTs; for Number of spots in the mutant peptide group / Number of spots in the wild-type peptide group: T cells activated by the listed peptide, 20 h; for Number of spots in the mutant peptide group: T2 cells loaded with TLISSLMPI; for Number of spots in the wild-type peptide group: T2 cells loaded with TLISSLRPI
Description: In this example, a ELISPOTs detection kit (Cat. No.: 3420-4AST-10, MABTECH) was used to verify the activation of an immune response of CD8+ T cells by the peptides of the present invention.
Principle of the ELISPOTs detection method is as follows: CD8+ T cells can specifically recognize the complex of HLA-A0201 and a peptide. The population of T cells recognizing the complex of the peptide and HLA-A0201 is varying, depending on the peptide sequence. Since T2 cells express HLA-A0201, CD8+ T cells can specifically recognize the T2 cells loaded with a peptide. After specific recognition of the complex of HLA-A0201 and the peptide, peptide-specific CD8+ T cells can be activated again to secrete IFN-γ interferon. The IFN-γ interferon secreted by the activated CD8+ T cells can be captured by antibodies on the ELISPOTs plate. Finally, the enzyme-conjugated antibody that recognizes IFN-γ can degrade the substrate through the enzyme conjugated thereto and develop color, eventually producing spots. The number of spots represents the number of cells that are activated to secrete IFN-γ interferon.
The cultured cells from Example 3 were added, along with T2 cells loaded with the mutant peptide […] (SEQ ID NO: 2) of the present invention and the wild-type peptide […] (SEQ ID NO: 1), respectively, into ELISPOTs plates, and cultured for 20 h, and then a ELISPOTs detection was performed (see the kit instruction). Finally, the spots produced by the ELISPOTs detection were counted.
The peptide was determined to have immunogenicity when the number of spots of the tested peptide/the number of spots of an unrelated peptide>2; that is, if the number of spots caused by the tested peptide is more than twice than that of an unrelated peptide, the tested peptide is determined to have immunogenicity.

CD8+ T cells [2] = assay: as above; type: cell-based, human; conditions: ratio of spot numbers; >2 immunogenic
T2 cells = assay: LDH release assay, killing of peptide-loaded T2 target cells by CD8+ T cells; type: cell-based, human; conditions: 4 h
Protocol: The cells cultured in Example 3 were co-cultured with T2 cells loaded with the mutant peptides of the present invention or the wild-type peptide or without a peptide. A maximum release well, a volume correction well, a medium control well, a spontaneous release well and control wells for example at different effector-to-target ratios (ratios of T cells to T2 cells) were set in this experiment. Three replicate wells were set for each group. After 4 h, 50 μl of the co-culture supernatant was taken out and added to 50 μl of LDH substrate mixture to catalyze the reaction of LDH substrate. Finally, the plates were read at a wavelength of 490 nm, with a reference wavelength of 680 nm, and the killing activity against target cells T2 was calculated based on the control wells.
The formula for calculating the killing activity is: Killing efficiency (%)=(test well−spontaneous release of effector cells−spontaneous release of target cells+medium well)/(maximum release of target cells−volume correction well−spontaneous release of target cells+medium well)×100%

[3] = test system: H2087-TLISSLMPI (SEQ ID NO: 2) subcutaneous tumor; assay: DC vaccine infected with recombinant lentivirus containing peptide gene in H2087-[…] tumor model; type: in vivo, NOD/SCID mice; conditions: DC infected with lentivirus carrying peptide gene, 2 injections
Description: The following DNA sequences were synthesized: “[…]” (SEQ ID NO: 8), encoding the wild-type peptide […] (SEQ ID NO: 1); “[…]” (SEQ ID NO: 9), encoding the mutant peptide […] (SEQ ID NO: 2); “[…]” (SEQ ID NO: 10), encoding the SEQ ID NO: 2 […]'s variant peptide […] (SEQ ID NO: 3); “[…]” (SEQ ID NO: 11), encoding the SEQ ID NO: 2 […]'s variant peptide […] (SEQ ID NO: 4); “[…]” (SEQ ID NO: 12), encoding the SEQ ID NO: 2 […]'s variant peptide […] (SEQ ID NO: 5); “[…]” (SEQ ID NO: 13), encoding the SEQ ID NO: 2 […]'s variant peptide […] (SEQ ID NO: 6); and “[…]” (SEQ ID NO: 14), encoding the SEQ ID NO: 2_[…]'s variant peptide […] (SEQ ID NO: 7). The wild-type peptide […] (SEQ ID NO: 1), the mutant peptide […] (SEQ ID NO: 2) and the mutant peptide SEQ ID NO: 2 […]'s variant peptides were constructed into the lentiviral vector pHBLV-Puro, respectively, to name as pHBLV-Puro-[…] (SEQ ID NO: 1), pHBLV-Puro-[…] (SEQ ID NO: 2), pHBLV-Puro-[…] (SEQ ID NO: 3), pHBLV-Puro-[…] (SEQ ID NO: 4), pHBLV-Puro-[…] (SEQ ID NO: 5), pHBLV-Puro-[…] (SEQ ID NO: 6) and pHBLV-Puro-[…] (SEQ ID NO: 7), respectively. The seven lentiviral constructs were co-transfected into 293T cells with helper plasmids pSPAX2 and pMD2G for packaging, and lentiviruses of the wild-type peptide […] (SEQ ID NO: 1), the mutant peptide […] (SEQ ID NO: 2) and the mutant peptide's variant peptides were obtained.
600-900 ml of anticoagulated peripheral blood was collected from healthy volunteers for isolating peripheral blood mononuclear cells (PBMCs) via Ficoll. Cells were collected for use. 2×10^7 PBMCs per 0.5 ml was intraperitoneally injected into each of 300 NOD SCID mice without immune leakage to perform human immune reconstitution in NOD SCID mice. […]
The human non-small cell lung adenocarcinoma cell line H2087-[…] […] The long diameter a and the short diameter b of the tumor were measured with a vernier caliper every 2-3 days and the size of the tumor was calculated as a*b*b/2. The mice and tumors were weighed and recorded every day. […] The tumor volume and the survival rate of mice were recorded every 2 days. […]

[4] = effector-to-target ratio 1:1, target T2 loaded with TLISSLMPI
[5] = effector-to-target ratio 1:1, target T2 loaded with wild-type TLISSLRPI
[6] = effector-to-target ratio 10:1, target T2 loaded with TLISSLMPI
[7] = effector-to-target ratio 10:1, target T2 loaded with wild-type TLISSLRPI

Row | Sequence | Conclusion (immunogenicity) (CD8+ T cells [1]) | Number of spots in the mutant peptide group (CD8+ T cells [1]) | Number of spots in the wild-type peptide group (CD8+ T cells [1]) | Fold (tested/wild-type) (CD8+ T cells [2]) | Killing efficiency (T2 cells; [4]) | Killing efficiency (T2 cells; [5]) | Killing efficiency (T2 cells; [6]) | Killing efficiency (T2 cells; [7]) | Tumor-suppressing effect [3]
1 | TLISSLMPL | immunogenic | 317 | 37 | 8.57 | 8.23% | 3.12% | 39.66% | 5.71% | –
2 | TLISSLMPV | immunogenic | 325 | 41 | 7.93 | 8.56% | 2.57% | 43.82% | 4.73% | –
3 | TLISSLRPI [wild-type CACNA1H peptide used as comparison, reference compound] | – | – | – | – | – | – | – | – | no effect on this tumor
4 | TMISSLMPI | immunogenic | 321 | 27 | 11.88 | 8.33% | 2.85% | 41.16% | 5.13% | –
5 | TMISSLMPL | immunogenic | 338 | 39 | 8.67 | 9.12% | 3.13% | 45.23% | 5.83% | –
6 | TMISSLMPV | immunogenic | 345 | 35 | 9.86 | 9.32% | 3.51% | 47.35% | 6.31% | –
